Laboratory results published in PubChem BioAssay AID328 (DTP/NCI, 2004).
Where “and” joins values, the source holds several entries; their conditions need not be identical. Equal values may be shown once. Inconclusive results and toxic doses are left out.

System: BDF1 mice, P388 leukemia ip, median survival T/C
Test: NCI In Vivo Anticancer Drug Screen. Data for tumor model P388 Leukemia (intraperitoneal) in B6D2F1 (BDF1) mice
Conditions: endpoint: median survival time, higher = longer survival
Summary of the method: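 T/C = treated-group survival ÷ vehicle-control survival; tumour transplanted into mice before dosing.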

[1] = dose: 12.5 mg/kg/injection, schedule: Q01DX009 (ip), vehicle: saline
[2] = dose: 25.0 mg/kg/injection, schedule: Q01DX009 (ip), vehicle: saline with Tween-80
[3] = dose: 25.0 mg/kg/injection, schedule: Q01DX009 (ip), vehicle: saline
[4] = dose: 50.0 mg/kg/injection, schedule: Q01DX009 (ip), vehicle: saline with Tween-80
[5] = dose: 50.0 mg/kg/injection, schedule: Q01DX009 (ip), vehicle: saline
[6] = dose: 100.0 mg/kg/injection, schedule: Q01DX009 (ip), vehicle: saline with Tween-80
[7] = dose: 100.0 mg/kg/injection, schedule: Q01DX009 (ip), vehicle: saline
[8] = dose: 200.0 mg/kg/injection, schedule: Q01DX009 (ip), vehicle: saline with Tween-80
[9] = dose: 6.25 mg/kg/injection, schedule: Q01DX009 (ip), vehicle: saline with Tween-80
[10] = dose: 12.5 mg/kg/injection, schedule: Q01DX009 (ip), vehicle: saline with Tween-80
[11] = dose: 100.0 mg/kg/injection, schedule: Q04DX003 (ip), vehicle: saline with Tween-80
[12] = dose: 200.0 mg/kg/injection, schedule: Q04DX003 (ip), vehicle: saline with Tween-80
[13] = dose: 400.0 mg/kg/injection, schedule: Q04DX003 (ip), vehicle: saline with Tween-80
[14] = dose: 50.0 mg/kg/injection, schedule: Q04DX003 (ip), vehicle: saline with Tween-80

CCOC(=O)c1ccccn1
T/C [1]: 108 % of control
T/C [2]: 112 % of control
T/C [3]: 105 % of control
T/C [4]: 121 % of control
T/C [5]: 94 % of control
T/C [6]: 105 % of control
T/C [7]: 103 % of control
T/C [8]: 110 % of control

Cc1nc(N)[nH]c(=O)c1CCCNc1cccc(C(F)(F)F)c1
T/C (dose: 100.0 mg/kg/injection, schedule: Q01DX001 (ip), vehicle: Klucel (hydroxypropylcellulose) (HPC)): 100 % of control
T/C (dose: 200.0 mg/kg/injection, schedule: Q01DX001 (ip), vehicle: Klucel (hydroxypropylcellulose) (HPC)): 104 % of control
T/C (dose: 400.0 mg/kg/injection, schedule: Q01DX001 (ip), vehicle: Klucel (hydroxypropylcellulose) (HPC)): 104 % of control

CCC(NC(N)=O)C(CC)NC(N)=O (stereo unspecified)
T/C [2]: 106 % of control
T/C [4]: 120 % of control and 123 % of control

O=C(C=C(C(F)(F)F)C(F)(F)F)c1ccco1
T/C [9]: 120 % of control
T/C [10]: 120 % of control

O=C(O)c1cc2ccccc2o1
T/C [2]: 100 % of control
T/C [4]: 104 % of control
T/C [6]: 109 % of control

CCCCCCCCCCCC(=O)CC(SCC)c1ccccc1 (stereo unspecified)
T/C [4]: 96 % of control
T/C [6]: 87 % of control
T/C [8]: 89 % of control

O=CN(O)CC(=O)O.[Ni]
T/C (dose: 1.56 mg/kg/injection, schedule: Q04DX003 (ip), vehicle: saline): 90 % of control
T/C (dose: 2.3 mg/kg/injection, schedule: Q01DX001 (ip), vehicle: saline): 105 % of control
T/C (dose: 3.12 mg/kg/injection, schedule: Q01DX009 (ip), vehicle: saline): 120 % of control
T/C (dose: 3.12 mg/kg/injection, schedule: Q04DX003 (ip), vehicle: saline): 109 % of control
T/C (dose: 6.25 mg/kg/injection, schedule: Q01DX009 (ip), vehicle: saline): 115 % of control
T/C (dose: 6.25 mg/kg/injection, schedule: Q04DX003 (ip), vehicle: saline): 109 % of control
T/C (dose: 9.2 mg/kg/injection, schedule: Q01DX001 (ip), vehicle: saline): 95 % of control
T/C (dose: 9.2 mg/kg/injection, schedule: Q04DX003 (ip), vehicle: saline): 100 % of control
T/C (dose: 13.0 mg/kg/injection, schedule: Q01DX001 (ip), vehicle: saline): 113 % of control
T/C (dose: 13.0 mg/kg/injection, schedule: Q04DX003 (ip), vehicle: saline): 109 % of control
T/C (dose: 14.0 mg/kg/injection, schedule: Q04DX003 (ip), vehicle: saline): 109 % of control
T/C (dose: 20.0 mg/kg/injection, schedule: Q01DX001 (ip), vehicle: saline): 113 % of control
T/C (dose: 21.0 mg/kg/injection, schedule: Q04DX003 (ip), vehicle: saline): 118 % of control
T/C (dose: 30.0 mg/kg/injection, schedule: Q01DX001 (ip), vehicle: saline): 113 % of control
T/C (dose: 30.0 mg/kg/injection, schedule: Q04DX003 (ip), vehicle: saline): 113 % of control

CCCC(O)C(C)(C)[N+](=O)[O-] (stereo unspecified)
T/C [9]: 99 % of control
T/C [10]: 89 % of control

C[P+]1(C)CCc2c1ccc1ccccc21
T/C [10]: 104 % of control
T/C [2]: 100 % of control
T/C [4]: 104 % of control

COc1cc2c(cc1OC)C(c1ccc(N=Cc3ccc(N(C)C)cc3)cc1)N(C(=S)Nc1cc(Cl)ccc1Cl)CC2 (stereo unspecified)
T/C [2]: 97 % of control
T/C [4]: 93 % of control and 97 % of control
T/C [6]: 95 % of control
T/C [8]: 89 % of control

COc1cc(Nc2nc(Cl)ncc2[N+](=O)[O-])cc(OC)c1OC
T/C (dose: 100.0 mg/kg/injection, schedule: Q01DX001 (ip), vehicle: saline with Tween-80): 104 % of control
T/C (dose: 200.0 mg/kg/injection, schedule: Q01DX001 (ip), vehicle: saline with Tween-80): 100 % of control
T/C (dose: 400.0 mg/kg/injection, schedule: Q01DX001 (ip), vehicle: saline with Tween-80): 100 % of control

CCOC(=O)CCN(CCC(=O)OCC)C(C)C
T/C [11]: 100 % of control
T/C [12]: 100 % of control
T/C [13]: 100 % of control

C/C(CCCCl)=N/NC(N)=S
T/C (dose: 75.0 mg/kg/injection, schedule: Q01DX009 (ip), vehicle: saline): 86 % of control
T/C (dose: 115.0 mg/kg/injection, schedule: Q01DX009 (ip), vehicle: saline): 86 % of control

C#CC(C)OCC1CNC(=S)O1 (stereo unspecified)
T/C [14]: 110 % of control
T/C [11]: 100 % of control
T/C [12]: 115 % of control
T/C [13]: 110 % of control

COc1cc(Cc2nccc3cc(OC)c(OC)cc23)c([N+](=O)[O-])cc1OC
T/C (dose: 100.0 mg/kg/injection, schedule: Q04DX003 (ip), vehicle: saline sonified): 90 % of control
T/C (dose: 200.0 mg/kg/injection, schedule: Q04DX003 (ip), vehicle: saline sonified): 95 % of control
T/C (dose: 400.0 mg/kg/injection, schedule: Q04DX003 (ip), vehicle: saline sonified): 90 % of control

C[C@]12CC[C@H](OC3OC(CO)C(O)C(O)C3O)C[C@H]1CC[C@@H]1[C@@H]2CC[C@]2(C)[C@@H](C3=CCOC3=O)CC[C@]12O (stereo partly specified)
T/C (dose: 0.1 mg/kg/injection, schedule: Q01DX010 (ip), vehicle: saline): 110 % of control
T/C (dose: 0.2 mg/kg/injection, schedule: Q01DX010 (ip), vehicle: saline): 105 % of control
T/C (dose: 0.25 mg/kg/injection, schedule: Q01DX010 (ip), vehicle: saline): 100 % of control
T/C (dose: 0.4 mg/kg/injection, schedule: Q01DX010 (ip), vehicle: saline): 105 % of control
T/C (dose: 0.5 mg/kg/injection, schedule: Q01DX010 (ip), vehicle: saline): 100 % of control
T/C (dose: 0.8 mg/kg/injection, schedule: Q01DX010 (ip), vehicle: saline): 100 % of control
T/C (dose: 1.0 mg/kg/injection, schedule: Q01DX010 (ip), vehicle: saline): 100 % of control

CCOC(=O)C(NC(=O)OCc1ccccc1)(OCc1ccccc1)C(C)C (stereo unspecified)
T/C [11]: 97 % of control
T/C [12]: 105 % of control
T/C [13]: 94 % of control

CCOC(=O)c1cc2c(nn3c(C)cccc23)n(CC)c1=N
T/C (dose: 6.25 mg/kg/injection, schedule: Q01DX001 (ip), vehicle: saline): 105 % of control
T/C (dose: 12.5 mg/kg/injection, schedule: Q01DX001 (ip), vehicle: saline): 122 % of control
T/C (dose: 25.0 mg/kg/injection, schedule: Q01DX001 (ip), vehicle: saline): 100 % of control

COC1NC(=O)NC(=O)C1=[N+]=[N-] (stereo unspecified)
T/C (dose: 3.3 mg/kg/injection, schedule: Q01DX009 (ip), vehicle: saline with Tween-80): 170 % of control
T/C (dose: 5.0 mg/kg/injection, schedule: Q01DX009 (ip), vehicle: saline with Tween-80): 175 % of control

CCOC(=O)[C@]1(Br)CC[C@@]1(Br)C(=O)OCC
T/C [2]: 112 % of control
T/C [4]: 113 % of control and 114 % of control
T/C [6]: 117 % of control

O=C(Nc1[nH]nc2nccnc12)C(F)(F)F
T/C [11]: 109 % of control
T/C [12]: 104 % of control
T/C [13]: 118 % of control

O=[N+]([O-])c1ccc(S/N=C\c2ccccc2)c([N+](=O)[O-])c1
T/C [10]: 107 % of control
T/C [2]: 105 % of control
T/C [4]: 105 % of control

CC(C)n1cc2c(N)ncnc2n1
T/C [1]: 92 % of control
T/C [3]: 92 % of control
T/C [5]: 100 % of control and 120 % of control
T/C [7]: 100 % of control
T/C (dose: 100.0 mg/kg/injection, schedule: Q04DX003 (ip), vehicle: saline): 92 % of control
T/C (dose: 200.0 mg/kg/injection, schedule: Q04DX003 (ip), vehicle: saline): 100 % of control

N=C(N)c1ccc(C(=O)Oc2ccc([N+](=O)[O-])cc2)cc1
T/C [14]: 109 % of control
T/C [11]: 109 % of control
T/C [12]: 109 % of control

CNC(=O)NC1C(O)C(CO)OC(OC)C1O (stereo unspecified)
T/C (dose: 100.0 mg/kg/injection, schedule: Q01DX001 (ip), vehicle: saline): 118 % of control
T/C (dose: 200.0 mg/kg/injection, schedule: Q01DX001 (ip), vehicle: saline): 100 % of control
T/C (dose: 400.0 mg/kg/injection, schedule: Q01DX001 (ip), vehicle: saline): 104 % of control

C=CC(CN1CC1)OC(C)=O (stereo unspecified)
T/C (dose: 2.0 mg/kg/injection, schedule: Q01DX010 (ip), vehicle: saline): 112 % of control
T/C (dose: 4.0 mg/kg/injection, schedule: Q01DX010 (ip), vehicle: saline): 163 % of control
T/C (dose: 8.0 mg/kg/injection, schedule: Q01DX010 (ip), vehicle: saline): 181 % of control
T/C (dose: 16.0 mg/kg/injection, schedule: Q01DX010 (ip), vehicle: saline): 166 % of control

Clc1ccc(N=C/C=C\C=C/Nc2ccc(Cl)cc2)cc1
T/C (dose: 20.0 mg/kg/injection, schedule: Q01DX009 (ip), vehicle: saline with Tween-80): 91 % of control
